Test [1] can be described thus: Cerebral blood flow in the internal carotid artery system under ACVA model by ischemic and hemorrhagic types. The test is classed as in vivo. As to conditions: rats, intravenous, doses of 3, 30, 50 and 100 mg/kg.
The test system of another test is neurospecific enolase. As to the kind of experiment: Experimental treatment of rats with ischemic ACVA: neuronal degradation marker activity. It counts as in vivo. To be noted: 10 mg/kg once a day for 96 hours of ischemia. The source says: This evidences about the appropriateness of the use of the pharmaceutical compositions for parenteral use comprising the active substance 1-adamantylethyloxy-3-morpholino-2-propanol or pharmaceutically acceptable salts thereof for treatment and prevention of ischemic brain lesions after thrombolysis, stenting, balloon angioplasty, atheroctomy and removal of aneurysms in the internal carotid and vertebral arteries system.

Test [2] relates to NMDA-receptor-ionofor complex of hippocampal pyramidal neurons. The test can be described thus: Aspartate-activated currents in individual pyramidal hippocampal neurons. As to conditions: individual pyramidal hippocampal neurons of 15-day aged rats. It counts as cell-based, white Wistar WAG\GSto rats.
Test [3] can be described thus: Experimental treatment of rats with ischemic ACVA: endothelial dysfunction and nitrosating stress. The test is classed as in vivo. As to conditions: 20 mg/kg once a day for 96 hours of ischemia. The source says:
This provides the basis of its use for treatment and prevention of ischemic brain lesions after thrombolysis, stenting, balloon angioplasty, atheroctomy and removal of aneurysms in the internal carotid and vertebral arteries system.

Take `OC(COCCC12CC3CC(CC(C3)C1)C2)CN1CCOCC1` (stereo not drawn) [1-adamantylethyloxy-3-morpholino-2-propanol]: the “cerebral blood flow in the internal carotid artery system” value in test [1] is reported as “stimulates the cerebral blood flow”. Also, the “neuronal degradation marker activity (neurospecific enolase)” value in the test on neurospecific enolase was “promoted the reduction”. In addition, in test [2], the NMDA-receptors blocking/unblocking entry was “very fast” and the “modulation of aspartate-activated currents (action on NMDA-receptor-ionofor complex)” value is reported as “exhibits properties of activator NMDA-receptor-ionofor complex”. In test [3], the endothelial dysfunction manifestations entry is “promoted the decrease” and the nitrosating stress manifestations entry is recorded as “promoted the decrease”.

(Values after US9333207B2, “Pharmaceutical composition of 1-adamantylethyloxy-3-morpholino-2-propanol or pharmaceutically acceptable salts thereof for the treatment of cerebrovascular disease and neurodegenerative diseases of the central nervous system” (priority 2012, dated 2016).)
